The values below are quoted from earlier work in patent publication US20220125818A1, “COMPOSITIONS AND METHODS FOR TREATMENT OF A CORONAVIRUS DISEASE (COVID-19) INFECTION” (priority 2020, published 2022).

This data set deals with T1, COX-1 (Homo sapiens, UniProt P23219).
T1 construct: endogenous in cells; host or cells: platelets (in vivo)
The following applies: average platelet lifespan.

T1 sequence (P23219 24-599): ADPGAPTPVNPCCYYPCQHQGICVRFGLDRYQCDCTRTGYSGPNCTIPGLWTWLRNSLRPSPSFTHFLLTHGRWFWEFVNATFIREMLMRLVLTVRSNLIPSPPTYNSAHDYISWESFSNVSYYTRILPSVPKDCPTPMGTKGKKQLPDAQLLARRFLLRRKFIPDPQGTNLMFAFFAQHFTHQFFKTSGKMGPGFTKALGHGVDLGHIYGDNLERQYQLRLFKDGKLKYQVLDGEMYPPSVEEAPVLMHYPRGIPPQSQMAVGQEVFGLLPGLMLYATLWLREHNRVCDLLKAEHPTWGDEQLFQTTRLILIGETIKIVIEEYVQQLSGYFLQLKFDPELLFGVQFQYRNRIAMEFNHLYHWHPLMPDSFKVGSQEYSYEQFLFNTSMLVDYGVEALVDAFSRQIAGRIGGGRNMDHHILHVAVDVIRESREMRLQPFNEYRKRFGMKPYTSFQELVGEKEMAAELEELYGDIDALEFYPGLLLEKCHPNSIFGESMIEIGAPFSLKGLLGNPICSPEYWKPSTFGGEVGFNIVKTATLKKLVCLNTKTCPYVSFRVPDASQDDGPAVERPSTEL

As to `CC(=O)Oc1ccccc1C(=O)O` [Aspirin®, Acetylsalicylic acid], the “duration of inhibition of platelet aggregation” value is 7 to 10 days.
